In patent publication US10980776B2, “Synergistic pharmaceutical combination for the treatment of squamous cell carcinoma of head and neck” (Piramal Enterprises Limited, priority 2011, dated 2021):

Legend:
FADU cells [1] = experiment: CCK-8 cytotoxicity assay, determination of inhibitory concentrations in FADU cells; type: cell-based, human; details: 72 hr
SCC-25 cells [2] = experiment: CCK-8 cytotoxicity assay, determination of inhibitory concentrations in SCC-25 cells; type: cell-based; details: SCC-25 cells, 72 hr
Description: (§1) Logarithmically growing cells were plated at a density of 3×10^3 cells/well and allowed to recover overnight. […] After 72 hours, cell toxicity was determined by CCK-8 (Cell Counting Kit-8) reagent (Dojindo Molecular Technologies, Japan); WST-8 (2-(2-methoxy-4-nitrophenyl)-3-(4-nitrophenyl)-5-(2, 4-disulfophenyl)]-2H-tetrazolium, monosodium salt) assay. In accordance with the manufacturer's instructions, 5 μl/well CCK-8 reagent was added and plates were incubated for 2 hours. The toxicity was determined by measuring the absorbance on Tecan Sapphire multi-fluorescence micro-plate reader (Tecan, Germany, GmbH) at a wavelength of 450 nm corrected to 650 nm and normalized to controls.
(§2) CCK-8 allows convenient assays using Dojindo's tetrazolium salt, WST [8[(2-(2-methoxy-4-nitrophenyl)-3-(4-nitrophenyl)-5-(2,4-disulfophenyl)-2H-tetrazolium, monosodium salt], which produces a water-soluble formazan dye upon bioreduction in the presence of an electron carrier, 1-Methoxy PMS. CCK-8 solution is added directly to the cells; no pre-mixing of components is required. CCK-8 is a sensitive nonradioactive colorimetric assay for determining the number of viable cells in cell proliferation and cytotoxicity assays. WST-8 is bio-reduced by cellular dehydrogenases to an orange formazan product that is soluble in tissue culture medium. The amount of formazan produced is directly proportional to the number of living cells. The detection sensitivity of cell proliferation assays using WST-8 is higher than assays using the other tetrazolium salts such as MIT, XTT, MTS or WST-1. Optical Density was determined at measurement wavelength of 450 nm and reference wave length of 630 nm.
The cells were seeded at a density of 3000 cells/well, in a 200 μL in tissue culture grade 96 well plate and were allowed to recover for 24 hrs in a humidified 5%±0.2 CO2 incubator at 37° C.±0.5° C. […] The final DMSO concentration was 0.5% in wells. Plates were incubated for 48 hrs in humidified 5%±0.2 CO2 incubator at 37±0.5° C. After 48 hrs the plates were removed from CO2 incubator and 5 μL of Cell counting Kit (CCK-8) per well was added. The same plate was kept at 37° C. for 3 hrs, and allowed to come to room temperature. The absorbance at a wavelength of 450 nm was read on Tecan safire reader. The percent cytotoxicity was calculated using the following formula.

SCC-25 cells [3] = experiment: Combination studies (single and sequential combination dosing), % cytotoxicity in SCC-25 cells; details: Homo sapiens, SCC-25, SCC-25; for cytotoxicity at 1.1 µM: single agent at IC50 (compound B 1.1 μM)
Description: as §1, §2
Sorafenib in the following dose of final concentration 0.18 μM and compound A in the following doses of final concentration 0.1 μM, 0.4 μM and 4.1 μM were analyzed in single dose and in all possible combinations of the dose range for the two anticancer agents mentioned above. The sequence of treatment is as follows; the SCC-25 cells were treated with sorafenib for 0 to 24 hrs. At the end of 24 hrs the cells were washed two times with plain MEM (minimum essential media) medium. Fresh MEM with 10% serum (200 μL/well) was added, followed by treatment with compound A from 24 hrs to 96 hrs.
Sorafenib in the following dose of final concentration 0.18 μM and compound B in the following doses of final concentration 0.2 μM, 1.1 μM and 4.8 μM were analyzed in single dose and in all possible combinations of the dose range for the two anticancer agents mentioned above. The sequence of treatment is as follows; the SCC-25 cells were treated with sorafenib for 0 to 24 hrs. At the end of 24 hrs the cells were washed two times with plain MEM medium. Fresh MEM with 10% serum (200 μL/well) was added, followed by treatment with compound B from 24 hrs to 96 hrs.
Lapatinib in the following dose of final concentration 0.2 μM and compound A in the following doses of final concentration 0.2 μM, 0.5 μM and 3.3 μM were analyzed in single dose and in all possible combinations of the dose range for the two drugs mentioned above. The sequence of treatment is as follows; the SCC-25 cells were treated with lapatinib for 0 to 24 hrs. At the end of 24 hrs the cells were washed two times with plain MEM medium. Fresh MEM with 10% serum (200 μL/well) was added, followed by treatment with compound A from 24 hrs to 96 hrs.
Lapatinib in the following dose of final concentration 0.2 μM and compound B in the following doses of final concentration 0.2 μM, 1.1 μM and 4.8 μM were analyzed in single dose and in all possible combinations of the dose range for the two drugs mentioned above. The sequence of treatment is as follows; the SCC-25 cells were treated with lapatinib for 0 to 24 hrs. At the end of 24 hrs the cells were washed two times with plain MEM medium. Fresh MEM with 10% serum (200 μL/well) was added, followed by treatment with compound A from 24 hrs to 96 hrs.

Detroit-562 cells = experiment: CCK-8 cytotoxicity assay, determination of inhibitory concentrations in Detroit-562 cells; type: cell-based; details: 72 hr
FADU cells [4] = experiment: cells; details: Homo sapiens; for cytotoxicity at 4.1 µM: single agent at IC50 (compound B 4.1 μM); for cytotoxicity at 9.6 µM: single agent at IC70 (compound B 9.6 μM)

`CN1CC[C@@H](c2c(O)cc(O)c3c(=O)cc(-c4ccc(C(F)(F)F)cc4Cl)oc23)[C@@H]1CO.Cl` [Compound B, (+)-trans-2-(2-chloro-4-trifluoromethyl-phenyl)-5,7-dihydroxy-8-(2-hydroxymethyl-1-methyl-pyrrolidin-3-yl)-chromen-4-one hydrochloride] gave an IC30 (FADU cells [1]) of 2.3 µM, an IC70 (FADU cells [1]) of 9.6 µM and an IC50 (FADU cells [1]; Homo sapiens) of 4.1 µM. It also gave an IC90 (FADU cells [1]; Homo sapiens) of 31.4 µM, an IC90 (SCC-25 cells [2]; Homo sapiens) of 41.8 µM and an IC50 (SCC-25 cells [2]; Homo sapiens, read-out: IC50) of 1.1 µM. It also gave an IC30 (SCC-25 cells [2]) of 0.2 µM, an IC70 (SCC-25 cells [2]) of 4.8 µM and a cytotoxicity at 0.2 µM (SCC-25 cells [3]; single agent at IC30 (lapatinib 0.2 μM; compound B 0.2 μM)) of 16%. The cytotoxicity at 0.2 µM (SCC-25 cells [3]; single agent at IC30 (sorafenib 0.18 μM; compound B 0.2 μM)) was 16%, the cytotoxicity at 1.1 µM (SCC-25 cells [3]; lapatinib study) was 19% and the cytotoxicity at 1.1 µM (SCC-25 cells [3]; sorafenib study) was 19%. For the same compound, the IC30 (Detroit-562 cells) was 2.7 µM, the IC70 (Detroit-562 cells) was 25.2 µM and the IC50 (Detroit-562 cells; Homo sapiens) was 14.1 µM. The IC90 (Detroit-562 cells; Homo sapiens) was 44.6 µM, the cytotoxicity at 2.3 µM (FADU cells [4]; single agent at IC30 (lapatinib 0.8 μM; compound B 2.3 μM)) was 21% and the cytotoxicity at 2.3 µM (FADU cells [4]; single agent at IC30 (sorafenib 3.9 μM; compound B 2.3 μM)) was 14%. It also gave a cytotoxicity at 4.1 µM (FADU cells [4]; lapatinib study) of 26%, a cytotoxicity at 4.1 µM (FADU cells [4]; sorafenib study) of 20% and a cytotoxicity at 9.6 µM (FADU cells [4]; lapatinib study) of 33%. The cytotoxicity at 9.6 µM (FADU cells [4]; sorafenib study) was 27%.
